Measured values as given in patent US20200078360A1, “SMALL MOLECULE DUAL INHIBITORS OF EGFR/PI3K AND USES THEREOF” (The Regents of the University of Michigan, priority 2016, published 2020).

Legend:
[1] = system: RKO (BRAFmt) tumors; experiment: single agent activity against RKO tumors; format: in vivo; conditions: FIG. 5
[2] = metabolic stability (FIG. 2); format: in vitro ADME
[3] = system: xenograft; experiment: in vivo efficacy in combination with MEK inhibitors (FIG. 22); set-up: species or system mice
Protocol: (§1) For the xenograft studies established from the patient-derived xenograft (PDX) models (UM CRC 14-929 and UM CRC 15-1269), female 6- to 7-week-old NCR nude mice (CrTac:NCr-Foxnlnu from Taconic) were implanted subcutaneously with low-passage PDX tumor fragments (30 mg) into the region of the right axilla. For the xenograft studies established from cell lines (CT-26), cells were injected (1×10^6 cells per injection) into the flanks of female 6- to 7-week old NCR nude mice. In both cases, the mice were randomized into treatment groups and treatments initiated when tumors reached 100 to 200 mg. […] Subcutaneous tumor volume and body weights were measured two to three times a week. Tumor volumes were calculated by measuring two perpendicular diameters with calipers and using the formula: tumor volume ¼ (length x width^2)/2. Percent treated/control (% TC) was calculated by dividing the median treated tumor weight by the median control tumor weight and multiplying by 100 on the last day of treatment. […] Increase in lifespan was calculated by dividing the median increase in lifespan (days) by the median survival time of the vehicle control group. […]

[4] = tolerability of daily oral dosing; format: in vivo; conditions: daily oral dosing of 100 mg/kg, FIG. 6
Protocol: as §1

[5] = system: HCT-116 (KRASmt) tumors; experiment: single agent activity against HCT-116 tumors; format: in vivo; conditions: FIG. 5
[6] = system: EGFR and PI3K pathway signaling; experiment: cellular EGFR and PI3K pathway signaling (Western blots); format: cell-based; conditions: FIG. 4
Protocol: Cells or tumors were lysed in NP-40 lysis buffer [25 mmolL Tris-HCl (pH 7.6), 150 mmol/L NaCl, 1% Nonidet P-40, 10% glycerol, 1 mmol/L EDTA, 1 mmol/L dithiothreitol, and protease and phosphatase inhibitors], rocked for 30 minutes at 4° C., and centrifuged at 13,200 rpm for 20 minutes at 4° C. Protein concentration was determined by BioRad Protein Assays and lysates were subsequently subjected to SDS gel electrophoresis. Proteins were transferred to polyvinylidene fluoride (PVDF) membranes and probed with primary antibodies recognizing p-EGFR tyr1068), EGFR, p-HER2 (tyr1248), HER2, p-AKT (ser473), p-AKT (thr308), AKT, pERK1/2 (thr202/tyr204), ERK1/2, pS6K (ser235/236), S6K, and cleaved PARP (all from Cell Signaling Technology) and beta actin (Abcam). After incubation with anti-rabbit HRP-linked secondary antibody (Jackson ImmunoResearch Laboratories, Inc.), proteins were detected using chemiluminescence (GE Healthcare).

[7] = system: ERBB and PI3K family members; experiment: potency and selectivity against kinase family members (FIG. 1); format: biochemical

CS(=O)(=O)Nc1cc(-c2ccc3ncnc(Nc4ccc(F)c(Cl)c4)c3c2)cnc1Cl [MTX-211]
activity against RKO (BRAFmt) tumors [1]: single agent activity
metabolic stability [2]: favorable metabolic stability
in vivo efficacy when combined with MEK inhibitors [3]: in vivo potentiation of MTX-211 efficacy
tolerability [4]: well tolerated
activity against HCT-116 (KRASmt) tumors [5]: single agent activity
modulation of cellular EGFR and PI3K pathway signaling [6]: modulates cellular EGFR and PI3K pathway signaling
potency and selectivity against ERBB and PI3K family members [7]: potent and highly selective
